Reference: the NIST ThermoML archive (doi:10.1021/je060116w)

Details: Hot wire method

FC(F)CC(F)(F)F [1,1,1,3,3-pentafluoropropane]
Liquid
Details | thermal conductivity [W/m/K]
244.4 K | 0.1044
244.64 K | 0.1043
244.9 K | 0.1041
254.41 K | 0.1014
254.67 K | 0.1014
254.94 K | 0.1013
264.37 K | 0.09835
264.64 K | 0.0982
264.91 K | 0.0981
274.38 K | 0.09519
274.66 K | 0.09525
274.94 K | 0.09497
284.51 K | 0.09219
284.8 K | 0.09211
285.08 K | 0.09178
294.42 K | 0.08894
294.67 K | 0.08895
294.99 K | 0.08862
304.46 K | 0.08598
304.72 K | 0.08564
305.08 K | 0.08542
314.17 K | 0.0826
314.45 K | 0.08276
314.53 K | 0.08259
314.76 K | 0.08269
314.8 K | 0.08262
315.13 K | 0.08252
315.17 K | 0.08234
324.46 K | 0.0795
324.78 K | 0.07945
325.15 K | 0.07953
334.52 K | 0.07649
334.84 K | 0.0765
335.21 K | 0.0765
344.59 K | 0.07365
344.93 K | 0.07351
345.31 K | 0.07356
354.66 K | 0.07059
355 K | 0.07059
355.37 K | 0.07058
364.67 K | 0.06648
365.04 K | 0.06636
365.43 K | 0.06604
374.69 K | 0.06371

Gas
Details | thermal conductivity [W/m/K]
296.14 K, 121.3 kPa | 0.01256
297.06 K, 121.3 kPa | 0.01257
297.76 K, 121.3 kPa | 0.01267
305.45 K, 123.2 kPa | 0.01342
305.99 K, 123.2 kPa | 0.01345
306.63 K, 123.2 kPa | 0.01352
315.24 K, 203.4 kPa | 0.01425
315.99 K, 203.4 kPa | 0.01428
316.55 K, 203.4 kPa | 0.01435
325.29 K, 203.3 kPa | 0.0152
326.02 K, 203.3 kPa | 0.01524
326.56 K, 203.3 kPa | 0.01527
335.28 K, 291.6 kPa | 0.01607
335.96 K, 291.6 kPa | 0.0161
336.77 K, 291.6 kPa | 0.01611
345.15 K, 303 kPa | 0.01704
345.77 K, 303 kPa | 0.0171
346.5 K, 303 kPa | 0.01714
354.97 K, 738.2 kPa | 0.01782
355.04 K, 579.7 kPa | 0.01778
355.53 K, 738.2 kPa | 0.01786
355.63 K, 579.7 kPa | 0.01782
356.17 K, 738.2 kPa | 0.0179
356.29 K, 579.7 kPa | 0.01791
364.88 K, 954.5 kPa | 0.01876
365.05 K, 617.9 kPa | 0.01865
365.4 K, 954.5 kPa | 0.01875
365.61 K, 617.9 kPa | 0.01873
365.96 K, 954.5 kPa | 0.0189
366.24 K, 617.9 kPa | 0.01878
